{"source": "patent US7847127B2", "about": "“Process for preparation of atovaquone and novel intermediates thereof” (IPCA Laboratories Limited, priority 2007, dated 2010)", "assay": "Stability of the physical form on storage under ambient conditions", "format": "physicochemical", "details": "stable = remains substantially in the same physical form for at least a month at 20° C./60% RH", "method": "The term “stable,” as used herein, refers to the tendency to remain substantially in the same physical form for at least a month, preferably at least 6 months, more preferably at least a year, still more preferably at least 2 years, when stored under ambient conditions (20° C./60% RH) without external treatment. Substantially the same physical form in this context means that at least 50%, preferably at least 80% and more preferably at least 90% of the crystalline form remains."}
{"smiles": "O=C1C(O)=C([C@H]2CC[C@H](c3ccc(Cl)cc3)CC2)C(=O)c2ccccc21", "note": "[Form IPCA-ATO, trans-2-[4-(4-chlorophenyl)cyclohexyl]-3-hydroxy-1,4-naphthoquinone]", "values": [{"measurement": "Stability of the crystalline form", "value": "stable"}]}
